The source of these data is patent publication US20250361227A1, “INHIBITORS OF FLI1 AND ERG” (UNIVERSITY OF VIRGINIA PATENT FOUNDATION, priority 2022, published 2025).

By IC50 is commonly meant the concentration at which inhibition is half-maximal. Broadly, the Kd is a measure of binding affinity in units of concentration.

Like-named read-outs stand apart in the source and are kept apart here.

The target in assay [1] is T1, ERG auto-inhibited construct (ERGi, 272-388) (Homo sapiens, UniProt P11308).
T1 construct: made in house
T1 sequence (P11308 272-388 isoform P11308-1): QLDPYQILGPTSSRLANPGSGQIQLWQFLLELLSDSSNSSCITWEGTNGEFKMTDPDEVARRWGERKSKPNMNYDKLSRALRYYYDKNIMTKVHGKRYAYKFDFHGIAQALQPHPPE
As to the kind of experiment: ERGi-DNA fluorescence polarization assay. Format: binding. The text has this:
(§1) The constructs of ERG which retain full auto-inhibition were previously delineated (17). Fluorescence polarization-based assays for DNA binding were then developed, which were used for screening. In addition to the auto-inhibited form of ERG, it was important to also have an assay using its Ets domain, i.e., the uninhibited form of the protein, to compare action of compounds. Compounds which are active against the auto-inhibited form of the protein but have little or no effect on the uninhibited form were sought, indicating their binding is mediated by the non-conserved auto-inhibitory modules rather than the highly conserved Ets domain. […] Fragment screening is an alternative approach that has gained a great deal of favor in the pharma industry recently that employs relatively small molecules (22). […] The auto-inhibited construct was screened first with a dose dependent screen of actives with ERGi using fluorescein- and Texas Red-DNA and then the positive hits were counter-screened with the ERG Ets domain, specifically a screen of actives with ERGu, the latter screen serving to remove compounds which bind to the conserved Ets domain or to DNA, which left 26 compounds which inhibit the auto-inhibited construct of ERG binding to DNA but not the uninhibited ERG (the Ets domain) binding to DNA. ERGi is the auto-inhibited construct of ERG (272-388) and ERGu is the uninhibited DNA binding domain construct of ERG (289-378). […] The IC50 of the validated hits was 0.6-7 mM. […] Importantly, chemical shift changes upon compound addition are observed in the ^15N-^1H HSQC NMR spectra of ERG for amino acids located in the auto-inhibitory modules of ERG, indicating they do interact with these regions of the protein. It is critical to also develop assays for other ETS family members to assess the specificity of action of the compounds identified in the screen, so auto-inhibited constructs were expressed and assays were developed for five other ETS family members and assays for additional members of the family were also developed.
(§2) Using a standard medicinal chemistry approach, further optimization of the fragment hits were pursued. The specificity of parent fragments and their optimized derivatives with 5 additional Ets proteins which are representatives of 5 additional sub-families, were evaluated, as shown in Table 2. […] NA in Table 2 represents no activity up to the 2000 μM maximum concentration. >number in Table 2 represents some activity at highest concentrations so data fit with a lower bound to obtain an estimate of IC50.
On the technique in general: Fluorescence polarisation rises when a labelled molecule tumbles more slowly, as on binding a larger partner.

The target in assay [2] is T2, ERG isolated Ets domain (ERGu, 289-378) (Homo sapiens, UniProt P11308).
T2 construct: made in house
T2 sequence (P11308 289-378 isoform P11308-1): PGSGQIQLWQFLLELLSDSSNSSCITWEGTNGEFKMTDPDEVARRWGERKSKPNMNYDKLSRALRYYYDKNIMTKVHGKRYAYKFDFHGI
Description: Fluorescence polarization DNA binding assay, uninhibited ERG. The settings on record: FP DNA binding, NA = no activity up to 2000 μM, >number = estimate from fit with lower bound.
Description: as §1, §2

The next assay addresses T3, ELK1 (Homo sapiens, UniProt P19419).
T3 sequence (P19419 1-428): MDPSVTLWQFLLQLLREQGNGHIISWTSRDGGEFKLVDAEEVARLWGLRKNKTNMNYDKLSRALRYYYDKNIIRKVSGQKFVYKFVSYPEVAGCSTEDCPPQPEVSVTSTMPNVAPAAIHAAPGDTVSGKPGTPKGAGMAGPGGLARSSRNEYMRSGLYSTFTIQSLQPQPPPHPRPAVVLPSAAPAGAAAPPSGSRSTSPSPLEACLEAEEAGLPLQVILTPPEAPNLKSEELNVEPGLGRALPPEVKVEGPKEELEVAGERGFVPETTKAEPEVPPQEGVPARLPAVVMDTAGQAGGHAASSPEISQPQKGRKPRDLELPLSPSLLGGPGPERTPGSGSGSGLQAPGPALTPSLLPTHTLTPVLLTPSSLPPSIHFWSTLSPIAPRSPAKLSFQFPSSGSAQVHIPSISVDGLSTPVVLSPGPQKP
Description: Fluorescence polarization DNA binding assay, auto-inhibited ELK1. The settings on record: auto-inhibited construct; NA = no activity up to 2000 μM; >number = estimate from fit with lower bound.
Description: as §1, §2

In the next assay the target is T4, ELF3 (Homo sapiens, UniProt P78545).
T4 sequence (P78545 1-371): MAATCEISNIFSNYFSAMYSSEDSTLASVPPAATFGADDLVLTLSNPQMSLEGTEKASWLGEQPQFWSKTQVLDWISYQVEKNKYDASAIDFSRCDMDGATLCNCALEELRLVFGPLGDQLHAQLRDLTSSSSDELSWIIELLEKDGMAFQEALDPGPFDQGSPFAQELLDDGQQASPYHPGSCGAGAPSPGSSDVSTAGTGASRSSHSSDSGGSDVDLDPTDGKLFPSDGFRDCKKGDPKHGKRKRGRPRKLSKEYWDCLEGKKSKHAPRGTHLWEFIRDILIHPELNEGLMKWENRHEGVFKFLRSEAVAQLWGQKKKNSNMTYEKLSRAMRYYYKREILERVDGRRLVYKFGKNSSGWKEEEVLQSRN
Description: Fluorescence polarization DNA binding assay, auto-inhibited ELF3. The settings on record: auto-inhibited construct; NA = no activity up to 2000 μM; >number = estimate from fit with lower bound.
Description: as §1, §2

The target of another assay is T5, Ets1 (Homo sapiens, UniProt P14921).
T5 sequence (P14921 1-441): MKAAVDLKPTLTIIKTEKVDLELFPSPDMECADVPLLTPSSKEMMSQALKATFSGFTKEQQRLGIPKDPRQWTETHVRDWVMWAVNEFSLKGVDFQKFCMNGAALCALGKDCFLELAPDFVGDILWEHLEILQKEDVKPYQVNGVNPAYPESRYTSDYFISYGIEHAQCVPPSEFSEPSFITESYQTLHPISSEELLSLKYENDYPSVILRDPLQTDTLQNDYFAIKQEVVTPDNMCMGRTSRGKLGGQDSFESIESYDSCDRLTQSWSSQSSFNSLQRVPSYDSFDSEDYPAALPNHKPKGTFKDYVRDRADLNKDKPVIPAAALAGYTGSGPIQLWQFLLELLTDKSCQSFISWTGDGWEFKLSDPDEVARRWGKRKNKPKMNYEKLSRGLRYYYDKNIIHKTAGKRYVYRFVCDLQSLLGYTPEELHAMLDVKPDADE
As to the kind of experiment: Fluorescence polarization DNA binding assay, auto-inhibited Ets-1. The settings on record: auto-inhibited construct; NA = no activity up to 2000 μM; >number = estimate from fit with lower bound.
Description: as §1, §2

For a further assay, the target named is Spi1 (PU.1) (Homo sapiens, UniProt P17947). As to the kind of experiment: Fluorescence polarization DNA binding assay, auto-inhibited PU.1. The settings on record: auto-inhibited construct; NA = no activity up to 2000 μM; >number = estimate from fit with lower bound.
Description: as §1, §2

The next assay has as its target T6, ETV6 (TEL) (Homo sapiens, UniProt P41212).
T6 sequence (P41212 1-452): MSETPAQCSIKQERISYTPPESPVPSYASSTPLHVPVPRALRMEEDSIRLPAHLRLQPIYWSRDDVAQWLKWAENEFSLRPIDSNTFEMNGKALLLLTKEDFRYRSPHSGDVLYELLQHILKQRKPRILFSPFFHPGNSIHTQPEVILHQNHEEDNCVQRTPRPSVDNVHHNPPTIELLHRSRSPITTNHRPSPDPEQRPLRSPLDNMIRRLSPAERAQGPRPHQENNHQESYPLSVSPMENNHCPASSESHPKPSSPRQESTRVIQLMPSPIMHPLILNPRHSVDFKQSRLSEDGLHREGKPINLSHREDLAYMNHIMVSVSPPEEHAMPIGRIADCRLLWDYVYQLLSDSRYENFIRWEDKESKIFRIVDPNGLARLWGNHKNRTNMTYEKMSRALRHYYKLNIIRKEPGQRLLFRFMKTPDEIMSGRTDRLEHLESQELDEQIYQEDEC
As to the kind of experiment: Fluorescence polarization DNA binding assay, auto-inhibited ETV6. The settings on record: auto-inhibited construct; NA = no activity up to 2000 μM; >number = estimate from fit with lower bound.
Description: as §1, §2

For the next assay, the target named is DNA. The settings on record: ITC, ERG construct binding to DNA; ±SE in cell beside; cited from earlier work.
[3] abbreviates: FP DNA binding, maximum concentration 2000 μM, read-out: IC50 ERG Auto-inhibited construct.

On to `Cc1ccc(OCC(=O)Nc2cccc(O)c2)cc1` [Compound 6H6], for which the IC50 is 588 µM in assay [1] (setting [3]); > 2000 µM in assay [2]; > 4500 µM on ELK1; > 2000 µM at ELF3; > 4000 µM on Ets1; > 2000 µM at Spi1 (PU.1). Moreover, on ETV6 (TEL), the IC50 is > 2000 µM.

As to `Nc1ccc(Cl)c(-c2nc3ccccc3o2)c1` [Compound 9B5], the IC50 in assay [1] (setting [3]) is 965 µM; in assay [2], > 2000 µM; on ELK1, > 2100 µM; on ELF3, 1830 µM; at Ets1, > 2000 µM; at Spi1 (PU.1), > 4100 µM. The IC50 on ETV6 (TEL) was > 2500 µM.

With `COc1cccc2cc(C(C)=O)oc12` [Compound 9F1], the IC50 (in assay [2]; at ELK1; at ELF3; on Ets1; on Spi1 (PU.1); at ETV6 (TEL)) was > 2000 µM throughout.

On to `Cc1ccc(-c2nc3ccccc3o2)cc1C` [KK-19-109], for which the IC50 in assay [1] (optimized fragment analogs, values in text, read-out: IC50) turned out to be 63 µM.

B1: 289-388: ERG truncation construct, residues 289-388 (protein, UniProt P11308 289-388, looked up, fragment)
chain: QLDPYQILGPTSSRLANPGSGQIQLWQFLLELLSDSSNSSCITWEGTNGEFKMTDPDEVARRWGERKSKPNMNYDKLSRALRYYYDKNIMTKVHGKRYAY
On to B1, for which, at DNA, the Kd was 0.041 µM.

B2: 289-378: the uninhibited DNA binding domain construct of ERG (289-378) (protein, UniProt P11308 289-378, looked up, fragment)
chain: QLDPYQILGPTSSRLANPGSGQIQLWQFLLELLSDSSNSSCITWEGTNGEFKMTDPDEVARRWGERKSKPNMNYDKLSRALRYYYDKNIM
Turning to B2, the Kd on DNA was 0.037 µM.

B3: 210-462: ERG truncation construct, residues 210-462 (protein, UniProt P11308 210-462, looked up, fragment)
chain: KALQNSPRLMHARNTGGAAFIFPNTSVYPEATQRITTRPDLPYEPPRRSAWTGHGHPTPQSKAAQPSPSTVPKTEDQRPQLDPYQILGPTSSRLANPGSGQIQLWQFLLELLSDSSNSSCITWEGTNGEFKMTDPDEVARRWGERKSKPNMNYDKLSRALRYYYDKNIMTKVHGKRYAYKFDFHGIAQALQPHPPESSLYKYPSDLPYMGSYHAHPQKMNFVAPHPPALPVTSSSFFAAPNPYWNSPTGGIYP
As for B3, the Kd on DNA was 0.104 µM.

B4: 289-412: ERG truncation construct, residues 289-412 (protein, UniProt P11308 289-412, looked up, fragment)
chain: QLDPYQILGPTSSRLANPGSGQIQLWQFLLELLSDSSNSSCITWEGTNGEFKMTDPDEVARRWGERKSKPNMNYDKLSRALRYYYDKNIMTKVHGKRYAYKFDFHGIAQALQPHPPESSLYKYP
For B4, the Kd on DNA is 0.051 µM.

B5: 1-462: ERG construct, residues 1-462 (protein, UniProt P11308 1-462, looked up, fragment)
chain: MASTIKEALSVVSEDQSLFECAYGTPHLAKTEMTASSSSDYGQTSKMSPRVPQQDWLSQPPARVTIKMECNPSQVNGSRNSPDECSVAKGGKMVGSPDTVGMNYGSYMEEKHMPPPNMTTNERRVIVPADPTLWSTDHVRQWLEWAVKEYGLPDVNILLFQNIDGKELCKMTKDDFQRLTPSYNADILLSHLHYLRETPLPHLTSDDVDKALQNSPRLMHARNTGGAAFIFPNTSVYPEATQRITTRPDLPYEPPRRSAWTGHGHPTPQSKAAQPSPSTVPKTEDQRPQLDPYQILGPTSSRLANPGSGQIQLWQFLLELLSDSSNSSCITWEGTNGEFKMTDPDEVARRWGERKSKPNMNYDKLSRALRYYYDKNIMTKVHGKRYAYKFDFHGIAQALQPHPPESSLYKYPSDLPYMGSYHAHPQKMNFVAPHPPALPVTSSSFFAAPNPYWNSPTGGIYP
For B5, at DNA, the Kd was 0.121 µM.

B6: 272-388: the auto-inhibited construct of ERG (272-388) (protein, UniProt P11308 272-388, looked up, fragment)
chain: AAQPSPSTVPKTEDQRPQLDPYQILGPTSSRLANPGSGQIQLWQFLLELLSDSSNSSCITWEGTNGEFKMTDPDEVARRWGERKSKPNMNYDKLSRALRYYYDKNIMTKVHGKRYAY
On to B6, for which the Kd at DNA was 0.176 µM.

B7: 272-412: ERG truncation construct, residues 272-412 (protein, UniProt P11308 272-412, looked up, fragment)
chain: AAQPSPSTVPKTEDQRPQLDPYQILGPTSSRLANPGSGQIQLWQFLLELLSDSSNSSCITWEGTNGEFKMTDPDEVARRWGERKSKPNMNYDKLSRALRYYYDKNIMTKVHGKRYAYKFDFHGIAQALQPHPPESSLYKYP
Consider B7, for which, on DNA, the Kd was 0.101 µM.

B8: 272-378: ERG truncation construct, residues 272-378 (protein, UniProt P11308 272-378, looked up, fragment)
chain: AAQPSPSTVPKTEDQRPQLDPYQILGPTSSRLANPGSGQIQLWQFLLELLSDSSNSSCITWEGTNGEFKMTDPDEVARRWGERKSKPNMNYDKLSRALRYYYDKNIM
For B8, the Kd at DNA was 0.033 µM.
